Measurements taken from patent US20160183577A1, “Transglucosylated Rubus suavissimus Extract and Methods of Preparation and Use” (INTERNATIONAL FLAVORS & FRAGRANCES INC., priority 2014, published 2016).

Assay: Sensory evaluation of sweetness and mouthfeel of solutions in sucrose base solution (Example II)
Format: in vivo
Conditions: in sucrose base solution (4% in water), sucrose 1.5%, Reb-A 30 ppm, sucralose 20 ppm, rubusoside 45 ppm, Preparations at total rubusoside 45 ppm; for Mouthfeel: averaged score of 0 to 10 (0=none, 1=barely detectable, 2=weak, 4=weak-moderate, 6=moderate, 8=moderate-strong, 10=extremely strong); for Sweetness: averaged score of 0 to 10 (0=none, 10=extremely strong)
Protocol: Isosweet solutions of sucrose (1.5%), rebaudioside A (“Reb-A”) (30 ppm), sucralose (20 ppm) and rubusoside (45 ppm) were prepared in a sucrose base solution (4% in water). Additional solutions of the transglucosylated R. suavissimus extract prepared with different rubusoside transglucosylation rates including Preparation I, II and III (prepared as above in EXAMPLE I) were also prepared, wherein the total rubusoside concentrations were equalized to 45 ppm.
Sweetness and mouthfeel of the obtained solutions were evaluated using a score of 0 to 10, where 0=none, 1=barely detectable, 2=weak, 4=weak-moderate, 6=moderate, 8=moderate-strong and 10=extremely strong.

Row | Structure (SMILES) | Mouthfeel | Sweetness
1 | C=C1C[C@@]23CC[C@H]4[C@@](C)(CCC[C@@]4(C)C(=O)O[C@@H]4O[C@H](CO)[C@@H](O)[C@H](O)[C@H]4O)[C@@H]2CC[C@]1(O[C@@H]1O[C@H](CO)[C@@H](O)[C@H](O[C@@H]2O[C@H](CO)[C@@H](O)[C@H](O)[C@H]2O)[C@H]1O[C@@H]1O[C@H](CO)[C@@H](O)[C@H](O)[C@H]1O)C3 [Reb-A, rebaudioside A] | 3 | 5
2 | C=C1C[C@@]23CC[C@H]4[C@@](C)(CCC[C@@]4(C)C(=O)O[C@@H]4O[C@H](CO)[C@@H](O)[C@H](O)[C@H]4O)[C@@H]2CC[C@]1(O[C@@H]1O[C@H](CO)[C@@H](O)[C@H](O)[C@H]1O)C3 [Rubusoside, rubusoside] | 4 | 5
3 | OC[C@H]1O[C@H](O[C@]2(CCl)O[C@H](CCl)[C@@H](O)[C@@H]2O)[C@H](O)[C@@H](O)[C@H]1Cl [Sucralose, sucralose] | 3 | 5
4 | OC[C@H]1O[C@@](CO)(O[C@H]2O[C@H](CO)[C@@H](O)[C@H](O)[C@H]2O)[C@@H](O)[C@@H]1O [Sucrose, sucrose] | 7 | 5
